Assay [1] deals with T1, Prostaglandin G/H synthase 1 (Rattus norvegicus, UniProt Q63921).
T1 sequence (Q63921 whole entry): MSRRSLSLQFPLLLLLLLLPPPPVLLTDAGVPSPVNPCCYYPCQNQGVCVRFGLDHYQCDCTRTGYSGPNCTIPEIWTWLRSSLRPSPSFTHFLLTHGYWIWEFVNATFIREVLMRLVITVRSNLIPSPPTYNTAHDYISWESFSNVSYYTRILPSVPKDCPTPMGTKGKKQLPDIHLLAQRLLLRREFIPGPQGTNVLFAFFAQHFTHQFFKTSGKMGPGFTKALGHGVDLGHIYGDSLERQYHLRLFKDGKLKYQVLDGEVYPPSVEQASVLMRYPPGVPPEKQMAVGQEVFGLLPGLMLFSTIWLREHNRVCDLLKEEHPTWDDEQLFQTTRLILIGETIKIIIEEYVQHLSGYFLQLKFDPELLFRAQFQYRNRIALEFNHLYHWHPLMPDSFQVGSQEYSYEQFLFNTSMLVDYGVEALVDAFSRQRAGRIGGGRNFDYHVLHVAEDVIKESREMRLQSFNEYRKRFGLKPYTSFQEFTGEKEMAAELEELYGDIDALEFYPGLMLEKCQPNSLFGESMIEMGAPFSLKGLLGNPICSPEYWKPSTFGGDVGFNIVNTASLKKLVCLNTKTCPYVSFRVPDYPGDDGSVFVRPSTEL
Format: functional.

In assay [2] the target is T2, Alpha-2A adrenergic receptor (Homo sapiens, UniProt P08913).
T2 sequence (P08913 whole entry): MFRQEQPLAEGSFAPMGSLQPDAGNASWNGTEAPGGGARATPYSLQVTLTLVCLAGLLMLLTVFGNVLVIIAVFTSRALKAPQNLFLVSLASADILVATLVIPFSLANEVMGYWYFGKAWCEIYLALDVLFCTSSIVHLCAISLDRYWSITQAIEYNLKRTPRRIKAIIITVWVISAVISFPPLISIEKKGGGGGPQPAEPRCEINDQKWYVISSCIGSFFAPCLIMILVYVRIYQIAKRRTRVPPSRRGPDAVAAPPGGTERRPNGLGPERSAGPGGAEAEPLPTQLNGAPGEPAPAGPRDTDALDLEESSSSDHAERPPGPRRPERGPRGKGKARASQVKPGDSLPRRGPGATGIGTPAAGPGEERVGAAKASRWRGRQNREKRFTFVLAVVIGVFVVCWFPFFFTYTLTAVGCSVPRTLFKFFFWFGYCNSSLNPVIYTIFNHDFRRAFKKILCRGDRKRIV
The assay is classed as functional, cell-based.

In assay [3] the target is Motilin receptor (Homo sapiens, UniProt O43193).
Sequence of Motilin receptor (O43193 whole entry): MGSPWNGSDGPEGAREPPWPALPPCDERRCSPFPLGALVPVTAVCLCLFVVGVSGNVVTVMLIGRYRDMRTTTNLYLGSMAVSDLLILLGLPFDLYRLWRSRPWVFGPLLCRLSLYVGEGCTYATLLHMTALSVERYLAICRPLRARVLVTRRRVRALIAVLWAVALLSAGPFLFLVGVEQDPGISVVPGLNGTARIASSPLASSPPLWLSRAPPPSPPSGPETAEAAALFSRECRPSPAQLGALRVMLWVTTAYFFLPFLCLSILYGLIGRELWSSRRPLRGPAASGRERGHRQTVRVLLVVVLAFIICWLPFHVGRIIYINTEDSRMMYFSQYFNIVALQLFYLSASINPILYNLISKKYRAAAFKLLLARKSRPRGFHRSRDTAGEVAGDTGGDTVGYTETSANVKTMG
For assay [4], the target named is T3, Muscarinic acetylcholine receptor M2 (Homo sapiens, UniProt P08172).
T3 sequence (P08172 whole entry): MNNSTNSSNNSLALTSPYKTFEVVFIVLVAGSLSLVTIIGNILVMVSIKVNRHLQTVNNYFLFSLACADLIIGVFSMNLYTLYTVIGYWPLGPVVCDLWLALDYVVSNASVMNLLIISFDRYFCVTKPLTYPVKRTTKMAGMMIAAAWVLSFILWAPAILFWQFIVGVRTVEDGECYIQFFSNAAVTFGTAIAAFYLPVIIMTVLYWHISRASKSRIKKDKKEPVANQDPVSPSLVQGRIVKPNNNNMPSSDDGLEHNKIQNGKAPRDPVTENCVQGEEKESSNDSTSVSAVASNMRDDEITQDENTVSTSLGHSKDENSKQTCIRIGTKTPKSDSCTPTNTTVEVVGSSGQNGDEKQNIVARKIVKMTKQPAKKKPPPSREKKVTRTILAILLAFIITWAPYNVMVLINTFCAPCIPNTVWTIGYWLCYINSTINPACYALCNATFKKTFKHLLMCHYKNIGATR
The assay is classed as functional, cell-based.

For assay [5], the target named is Adenosine receptor A2a (Homo sapiens, UniProt P29274).
Sequence of Adenosine receptor A2a (P29274 whole entry): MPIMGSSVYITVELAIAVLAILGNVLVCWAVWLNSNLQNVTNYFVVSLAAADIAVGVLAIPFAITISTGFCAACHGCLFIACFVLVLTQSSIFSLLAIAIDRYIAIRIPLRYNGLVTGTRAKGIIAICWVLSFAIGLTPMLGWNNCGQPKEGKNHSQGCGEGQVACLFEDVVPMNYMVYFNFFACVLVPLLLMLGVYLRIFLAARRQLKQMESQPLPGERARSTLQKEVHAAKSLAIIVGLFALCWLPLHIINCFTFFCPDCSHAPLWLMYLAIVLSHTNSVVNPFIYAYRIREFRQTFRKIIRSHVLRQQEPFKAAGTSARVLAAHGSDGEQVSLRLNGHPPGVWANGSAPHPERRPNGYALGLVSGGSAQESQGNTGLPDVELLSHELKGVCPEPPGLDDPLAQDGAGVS
The target of assay [6] is Gamma-aminobutyric acid receptor subunit alpha-1 (Rattus norvegicus, UniProt P62813). Format: functional.
Sequence of Gamma-aminobutyric acid receptor subunit alpha-1 (P62813 whole entry): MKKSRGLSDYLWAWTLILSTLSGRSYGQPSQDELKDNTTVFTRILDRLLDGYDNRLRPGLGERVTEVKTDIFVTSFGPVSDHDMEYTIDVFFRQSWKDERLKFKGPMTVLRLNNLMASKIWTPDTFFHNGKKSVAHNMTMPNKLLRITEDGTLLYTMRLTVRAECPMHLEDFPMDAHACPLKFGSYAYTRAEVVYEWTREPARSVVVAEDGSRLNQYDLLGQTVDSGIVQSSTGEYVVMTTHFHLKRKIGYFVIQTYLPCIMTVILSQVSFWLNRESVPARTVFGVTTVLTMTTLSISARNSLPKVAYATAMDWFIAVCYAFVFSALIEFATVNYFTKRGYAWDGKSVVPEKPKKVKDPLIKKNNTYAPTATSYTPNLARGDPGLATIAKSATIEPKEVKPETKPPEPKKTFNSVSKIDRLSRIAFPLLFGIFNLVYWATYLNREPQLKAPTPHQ
Assay [7] addresses T4, 5-hydroxytryptamine receptor 3A (Homo sapiens, UniProt P46098).
T4 sequence (P46098 whole entry): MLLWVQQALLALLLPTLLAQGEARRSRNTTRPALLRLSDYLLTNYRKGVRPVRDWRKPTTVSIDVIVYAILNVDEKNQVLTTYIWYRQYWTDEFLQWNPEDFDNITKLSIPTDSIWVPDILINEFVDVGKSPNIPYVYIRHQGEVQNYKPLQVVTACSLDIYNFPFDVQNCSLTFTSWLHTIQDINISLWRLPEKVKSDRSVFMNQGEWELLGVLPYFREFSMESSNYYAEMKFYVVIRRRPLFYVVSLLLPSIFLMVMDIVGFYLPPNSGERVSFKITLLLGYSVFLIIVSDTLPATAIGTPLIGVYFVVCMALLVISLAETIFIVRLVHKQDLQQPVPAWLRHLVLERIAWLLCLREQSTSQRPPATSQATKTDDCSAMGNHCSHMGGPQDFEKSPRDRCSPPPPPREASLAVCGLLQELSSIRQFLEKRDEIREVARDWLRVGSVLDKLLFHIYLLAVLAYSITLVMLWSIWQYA
The assay is classed as functional.

The target in assay [8] is T5, 5-hydroxytryptamine receptor 1A (Homo sapiens, UniProt P08908).
T5 sequence (P08908 whole entry): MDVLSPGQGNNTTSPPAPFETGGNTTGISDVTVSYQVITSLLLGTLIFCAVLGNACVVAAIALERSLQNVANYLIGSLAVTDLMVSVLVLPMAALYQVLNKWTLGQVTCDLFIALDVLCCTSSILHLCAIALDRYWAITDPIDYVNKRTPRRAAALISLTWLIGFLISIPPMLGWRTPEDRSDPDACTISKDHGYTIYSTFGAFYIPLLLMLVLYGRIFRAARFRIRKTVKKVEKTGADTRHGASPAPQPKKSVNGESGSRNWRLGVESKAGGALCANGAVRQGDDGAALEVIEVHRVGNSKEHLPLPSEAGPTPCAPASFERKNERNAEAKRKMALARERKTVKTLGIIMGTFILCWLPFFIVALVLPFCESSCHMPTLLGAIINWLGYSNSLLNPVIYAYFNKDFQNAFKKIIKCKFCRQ
The assay is classed as functional, cell-based.

For assay [9], the target named is cGMP-inhibited 3',5'-cyclic phosphodiesterase 3A (Homo sapiens, UniProt Q14432). The assay is classed as functional.
Sequence of cGMP-inhibited 3',5'-cyclic phosphodiesterase 3A (Q14432 whole entry): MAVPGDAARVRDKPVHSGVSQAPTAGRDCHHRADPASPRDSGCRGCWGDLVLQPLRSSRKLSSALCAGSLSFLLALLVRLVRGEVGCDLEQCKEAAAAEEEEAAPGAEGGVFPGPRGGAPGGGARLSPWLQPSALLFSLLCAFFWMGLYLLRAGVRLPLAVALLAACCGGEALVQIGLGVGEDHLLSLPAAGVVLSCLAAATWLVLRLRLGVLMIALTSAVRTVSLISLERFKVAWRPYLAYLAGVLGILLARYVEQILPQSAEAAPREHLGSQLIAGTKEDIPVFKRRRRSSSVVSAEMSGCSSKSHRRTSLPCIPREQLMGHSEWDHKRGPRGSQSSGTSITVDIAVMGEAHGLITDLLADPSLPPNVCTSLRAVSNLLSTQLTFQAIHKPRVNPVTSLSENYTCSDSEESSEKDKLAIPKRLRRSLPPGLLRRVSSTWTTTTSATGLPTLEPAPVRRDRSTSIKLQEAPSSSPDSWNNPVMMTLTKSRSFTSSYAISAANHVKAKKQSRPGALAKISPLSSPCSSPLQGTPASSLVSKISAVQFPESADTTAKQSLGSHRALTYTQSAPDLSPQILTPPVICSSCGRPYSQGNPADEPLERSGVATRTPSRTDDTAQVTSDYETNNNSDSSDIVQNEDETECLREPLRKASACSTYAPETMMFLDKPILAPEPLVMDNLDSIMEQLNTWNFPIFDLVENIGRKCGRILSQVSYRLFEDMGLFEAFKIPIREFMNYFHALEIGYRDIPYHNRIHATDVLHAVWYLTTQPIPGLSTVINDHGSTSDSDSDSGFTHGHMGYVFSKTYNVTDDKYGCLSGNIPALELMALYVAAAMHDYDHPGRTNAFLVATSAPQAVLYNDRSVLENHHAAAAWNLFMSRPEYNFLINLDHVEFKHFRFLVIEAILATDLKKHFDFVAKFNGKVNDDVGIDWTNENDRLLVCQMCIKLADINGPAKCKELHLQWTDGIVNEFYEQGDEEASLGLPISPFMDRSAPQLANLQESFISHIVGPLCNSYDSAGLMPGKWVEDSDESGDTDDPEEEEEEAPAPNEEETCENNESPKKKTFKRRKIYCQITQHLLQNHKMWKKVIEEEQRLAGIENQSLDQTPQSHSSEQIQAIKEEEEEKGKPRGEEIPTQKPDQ
The target in assay [10] is Voltage-gated inwardly rectifying potassium channel KCNH2 (Homo sapiens, UniProt Q12809). Format: functional. The conditions noted are these: read-out: AC50.
Sequence of Voltage-gated inwardly rectifying potassium channel KCNH2 (Q12809 whole entry): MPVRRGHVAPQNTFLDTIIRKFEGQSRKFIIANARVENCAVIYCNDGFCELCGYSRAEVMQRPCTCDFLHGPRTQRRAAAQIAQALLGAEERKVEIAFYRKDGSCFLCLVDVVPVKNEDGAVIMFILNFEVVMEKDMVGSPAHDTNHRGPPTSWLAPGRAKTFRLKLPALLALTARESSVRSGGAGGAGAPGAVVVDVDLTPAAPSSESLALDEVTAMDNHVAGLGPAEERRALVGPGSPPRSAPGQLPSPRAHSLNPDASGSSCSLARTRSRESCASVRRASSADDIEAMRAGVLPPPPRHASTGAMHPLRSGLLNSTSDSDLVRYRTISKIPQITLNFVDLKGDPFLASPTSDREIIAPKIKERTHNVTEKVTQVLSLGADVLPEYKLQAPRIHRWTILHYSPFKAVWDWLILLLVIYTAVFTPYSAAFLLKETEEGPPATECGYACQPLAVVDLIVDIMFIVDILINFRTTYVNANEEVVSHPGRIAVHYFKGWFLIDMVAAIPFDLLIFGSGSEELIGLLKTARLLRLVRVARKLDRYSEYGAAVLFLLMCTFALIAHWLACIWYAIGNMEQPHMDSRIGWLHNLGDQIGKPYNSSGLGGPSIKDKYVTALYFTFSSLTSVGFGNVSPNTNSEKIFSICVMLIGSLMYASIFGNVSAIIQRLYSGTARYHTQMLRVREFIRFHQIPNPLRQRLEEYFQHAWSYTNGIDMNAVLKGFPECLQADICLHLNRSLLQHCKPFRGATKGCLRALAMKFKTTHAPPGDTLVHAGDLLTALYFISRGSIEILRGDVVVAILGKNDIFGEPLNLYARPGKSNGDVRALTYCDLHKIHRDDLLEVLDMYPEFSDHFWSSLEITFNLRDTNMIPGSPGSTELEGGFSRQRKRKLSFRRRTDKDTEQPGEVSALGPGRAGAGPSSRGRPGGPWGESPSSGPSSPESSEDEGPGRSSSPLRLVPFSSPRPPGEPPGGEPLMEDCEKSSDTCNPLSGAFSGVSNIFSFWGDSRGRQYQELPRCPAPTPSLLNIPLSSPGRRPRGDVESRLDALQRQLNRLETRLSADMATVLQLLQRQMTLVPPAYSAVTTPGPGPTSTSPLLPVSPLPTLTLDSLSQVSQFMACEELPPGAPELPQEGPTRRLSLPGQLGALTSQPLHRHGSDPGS
The target in assay [11] is Growth hormone secretagogue receptor type 1 (Homo sapiens, UniProt Q92847).
Sequence of Growth hormone secretagogue receptor type 1 (Q92847 whole entry): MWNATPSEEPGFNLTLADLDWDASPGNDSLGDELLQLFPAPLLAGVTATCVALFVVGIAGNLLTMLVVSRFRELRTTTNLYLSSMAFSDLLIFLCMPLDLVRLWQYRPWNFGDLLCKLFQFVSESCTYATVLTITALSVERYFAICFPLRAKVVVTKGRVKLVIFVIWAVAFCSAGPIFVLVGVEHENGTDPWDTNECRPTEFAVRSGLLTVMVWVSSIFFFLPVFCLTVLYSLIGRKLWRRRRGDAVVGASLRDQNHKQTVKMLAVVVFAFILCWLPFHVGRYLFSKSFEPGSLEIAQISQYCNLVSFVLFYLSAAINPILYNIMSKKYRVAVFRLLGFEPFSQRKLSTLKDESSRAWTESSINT

SMILES strings stand for the structures.
Further: assay procedure not described here.

Usually AC50 stands for the midpoint of the concentration-response curve, whichever way the signal moves. As to `CCCSc1ccc2nc(NC(=O)OC)[nH]c2c1` [ALBENDAZOLE], the AC50 in [1] was > 30 µM; in assay [2], > 10 µM; in [3] it was > 10 µM; in assay [4] it was > 10 µM; in [5] it was > 30 µM; in [6], > 10 µM. The concentration at half-maximal activity (AC50) in assay [7] is > 30 µM; in [8] it was > 10 µM; in assay [9] it was > 30 µM; in assay [10], 10.4 µM; in assay [11], > 10 µM.

`C=CCc1ccccc1OCC(O)CNC(C)C` (stereo unspecified) [ALPRENOLOL]: the half-maximal activity concentration (AC50) in [1], in assay [2], in assay [3], in [4], in assay [5] and in [6] was > 30 µM throughout. The concentration at half-maximal activity (AC50) was > 30 µM in assay [7]; > 30 µM in assay [8]; > 30 µM in assay [9]; 9.1 µM in assay [10]; > 30 µM in assay [11].

For the compound `CNC(=O)c1ccccc1Sc1ccc2c(/C=C/c3ccccn3)n[nH]c2c1` [AXITINIB], the AC50 in assay [1], in [2], in [3], in assay [4], in assay [5] and in assay [6] was > 30 µM throughout. Besides, the AC50 in assay [7], in assay [8], in assay [9], in assay [10] and in assay [11] was > 30 µM throughout.

With `CC[C@H]1OC(=O)[C@H](C)[C@@H](O[C@H]2C[C@@](C)(OC)[C@@H](O)[C@H](C)O2)[C@H](C)[C@@H](O[C@@H]2O[C@H](C)C[C@H](N(C)C)[C@H]2O)[C@](C)(O)C[C@@H](C)CN(C)[C@H](C)[C@@H](O)[C@]1(C)O` [AZITHROMYCIN], the AC50 in [1] was > 30 µM; in assay [2] it was > 10 µM; in assay [3] it was > 10 µM; in [4], > 10 µM; in assay [5], > 30 µM; in assay [6], > 10 µM. Besides, the AC50 was > 10 µM in [7]; > 10 µM in assay [8]; > 30 µM in assay [9]; > 30 µM in assay [10]; > 30 µM in assay [11].

On to `NCC(CC(=O)O)c1ccc(Cl)cc1` (stereo unspecified) [BACLOFEN], for which the AC50 in assay [1], in assay [2], in assay [3], in assay [4], in assay [5] and in [6] was > 30 µM in each case. The half-maximal activity concentration (AC50) in assay [7], in assay [8], in assay [9], in [10] and in assay [11] was > 30 µM throughout.

Take `CN1C(=O)CCS(=O)(=O)C1c1ccc(Cl)cc1` (stereo unspecified) [CHLORMEZANONE]: the AC50 in [1], in assay [2], in assay [3], in assay [4], in assay [5] and in assay [6] was > 10 µM in each case. In addition, the AC50 is > 30 µM in assay [7]; > 10 µM in assay [8]; > 30 µM in [9]; > 30 µM in assay [10]; > 10 µM in [11].

For `CN(C)/N=N/c1[nH]cnc1C(N)=O` [DACARBAZINE], the concentration at half-maximal activity (AC50) in assay [1], in [2], in assay [3], in assay [4], in assay [5] and in assay [6] was > 10 µM each time. Also, the AC50 in assay [7] was > 30 µM; in [8], > 10 µM; in [9] it was > 30 µM; in [10] it was > 30 µM; in assay [11], > 10 µM.

In the case of `O=C1Nc2ccc(Cl)cc2[C@@](C#CC2CC2)(C(F)(F)F)O1` [EFAVIRENZ], the half-maximal activity concentration (AC50) in [1] is > 30 µM; in assay [2], > 10 µM; in [3], > 30 µM; in assay [4], > 10 µM; in assay [5] it was > 30 µM; in assay [6], > 10 µM. For the same compound, the concentration at half-maximal activity (AC50) in [7] is > 30 µM; in assay [8] it was > 10 µM; in assay [9] it was 24 µM; in [10], > 30 µM; in assay [11], > 30 µM.

With `O=C(OCC(O)CO)c1ccccc1Nc1ccnc2cc(Cl)ccc12` (stereo unspecified) [GLAFENINE], the half-maximal activity concentration (AC50) is > 30 µM in assay [1]; > 30 µM in assay [2]; 28 µM in assay [3]; > 10 µM in assay [4]; 23 µM in assay [5]; 0.046 µM in assay [6]. The AC50 in assay [7] was > 30 µM; in assay [8] it was > 30 µM; in [9] it was > 30 µM; in assay [10] it was 1.4 µM; in assay [11], > 30 µM.

For the compound `C[C@]12CCC(=O)C=C1CC[C@@H]1[C@@H]2[C@@H](O)C[C@@]2(C)[C@H]1CC[C@]2(O)C(=O)CO` [HYDROCORTISONE], the concentration at half-maximal activity (AC50) was > 30 µM in [1]; > 10 µM in assay [2]; > 10 µM in [3]; > 10 µM in [4]; > 30 µM in [5]; > 10 µM in [6]. Further, the half-maximal activity concentration (AC50) in assay [7] was > 30 µM; in assay [8], > 10 µM; in [9], > 30 µM; in assay [10] it was > 30 µM; in assay [11], > 30 µM.

For the compound `O=P1(NCCCl)OCCCN1CCCl` (stereo unspecified) [IFOSFAMIDE], the concentration at half-maximal activity (AC50) in assay [1], in [2], in assay [3], in [4], in [5] and in assay [6] was > 30 µM each time. Moreover, the AC50 in [7] was > 30 µM; in assay [8] it was > 30 µM; in [9] it was 12 µM; in assay [10], > 30 µM; in assay [11] it was > 30 µM.

These data come from ChEMBL document CHEMBL5291721, “A preclinical secondary pharmacology resource illuminates target-adverse drug reaction associations of marketed drugs” (Nat Commun, 2023).
